From patent publication US20060024844A1, “Method for the idenification of ligands” (priority 2002, published 2006)
Where two headings read alike, the source gives them in different places.

How the values were obtained:
Assay type in all cases: binding
ER-β = ER-β (Homo sapiens, UniProt Q92731); test: Microplate thermal shift assay (Thermofluor) of ER-β with ligands and co-regulators; details: for ΔTm at 11 µM / Observed ΔTm stabilization, ligand alone / Change in Tm stabilization from the receptor-ligand ΔTm in the presence of SRC-1 NR2 / Change in Tm stabilization from the receptor-ligand ΔTm in the presence of SRC-3 NR2 / Change in Tm stabilization from the receptor-ligand ΔTm in the presence of SRC-3 / Change in Tm stabilization from the receptor-ligand ΔTm in the presence of NCoR1: ER-β 8 μM, ligand 20 μM; for ΔTm at 11 µM / Change in Tm stabilization from the receptor-ligand ΔTm in the presence of SRC-3: co-activator protein SRC-3 11 μM; for ΔTm at 11 µM: read-out: Change in Tm stabilization from the receptor-ligand ΔTm in the presence of SRC-3; for Observed ΔTm stabilization, ligand alone: no co-regulator, average of four experiments; for Change in Tm stabilization from the receptor-ligand ΔTm in the presence of SRC-1 NR2: co-activator peptide SRC1—NR2; for Change in Tm stabilization from the receptor-ligand ΔTm in the presence of SRC-3 NR2: co-activator peptide SRC3—NR2; for Change in Tm stabilization from the receptor-ligand ΔTm in the presence of NCoR1: co-repressor peptide NCoR-1
Sequence of ER-β (Q92731 whole entry, species assumed): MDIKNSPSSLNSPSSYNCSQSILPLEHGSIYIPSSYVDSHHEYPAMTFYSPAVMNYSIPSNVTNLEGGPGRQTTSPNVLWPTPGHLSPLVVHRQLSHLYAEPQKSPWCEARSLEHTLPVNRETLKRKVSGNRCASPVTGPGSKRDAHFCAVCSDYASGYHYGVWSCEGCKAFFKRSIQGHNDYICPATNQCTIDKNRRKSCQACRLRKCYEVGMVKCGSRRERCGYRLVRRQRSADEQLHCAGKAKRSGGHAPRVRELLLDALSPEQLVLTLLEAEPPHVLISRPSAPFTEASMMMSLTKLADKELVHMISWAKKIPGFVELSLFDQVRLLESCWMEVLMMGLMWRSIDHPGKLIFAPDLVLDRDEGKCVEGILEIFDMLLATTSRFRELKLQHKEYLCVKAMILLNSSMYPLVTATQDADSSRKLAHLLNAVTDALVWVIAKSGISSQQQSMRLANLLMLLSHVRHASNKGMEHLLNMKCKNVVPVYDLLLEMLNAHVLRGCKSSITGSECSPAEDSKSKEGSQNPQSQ
Method: (§1) A 2 μL ligand solution at 2 times the final concentration was dispensed with a micropipette into a 384 well black wall Greiner plate. Then, 2 μL of the protein dye solution was dispensed on top of the ligand solution in the 384 well plate. The plates were spun to ensure mixing of the protein-dye and ligand solutions followed by layering of 1 μL of silicone oil to prevent evaporation during heating of the samples.

ER-α [1] = target: T1, ER-α (Homo sapiens, UniProt P03372); test: Microplate thermal shift assay (Thermofluor) of ER-α against a panel of steroid ligands
T1 sequence (P03372 1-595): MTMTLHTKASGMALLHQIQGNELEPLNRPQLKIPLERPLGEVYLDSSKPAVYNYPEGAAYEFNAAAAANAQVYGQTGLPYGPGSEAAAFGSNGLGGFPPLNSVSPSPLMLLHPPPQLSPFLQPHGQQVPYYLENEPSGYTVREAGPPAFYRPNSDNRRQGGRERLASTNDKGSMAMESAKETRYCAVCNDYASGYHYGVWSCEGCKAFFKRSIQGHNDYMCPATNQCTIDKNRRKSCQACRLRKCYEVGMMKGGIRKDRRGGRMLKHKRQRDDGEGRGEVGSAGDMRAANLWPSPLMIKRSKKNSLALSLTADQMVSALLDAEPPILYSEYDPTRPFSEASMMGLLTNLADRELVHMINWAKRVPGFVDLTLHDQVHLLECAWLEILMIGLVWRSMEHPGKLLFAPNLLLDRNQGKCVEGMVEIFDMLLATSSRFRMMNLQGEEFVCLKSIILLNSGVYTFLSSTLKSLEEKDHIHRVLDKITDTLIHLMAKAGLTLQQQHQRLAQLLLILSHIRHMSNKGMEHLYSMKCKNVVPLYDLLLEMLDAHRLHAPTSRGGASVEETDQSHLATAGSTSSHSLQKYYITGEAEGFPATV
Method: The concentration of ER-α in all of the experiments was 8 μM and the ligand concentration was 20 μM.
A 2 μL ligand solution at 2 times the final concentration was dispensed with a micropipette into a 384 well black wall Greiner plate. Then, 2 μL of the protein dye solution was dispensed on top of the ligand solution in the 384 well plate. The plates were spun to ensure mixing of the protein-dye and ligand solutions followed by layering of […], of silicone oil to prevent evaporation during heating of the samples.

ER-α [2] = target: T1, ER-α; test: Microplate thermal shift assay (Thermofluor) of ER-α with ligands and co-regulators
Method: as §1

[3] = ER-α 8 μM, ligand 20 μM, average of four experiments
[4] = ER-α 8 μM, ligand 20 μM, average of four experiments, in °C (unit assumed)

Q: With `C[C@]12CC[C@@H]3c4ccc(O)cc4CC[C@H]3[C@@H]1CC[C@@H]2O` [Estradiol, β-estradiol] as the compound, how does the ΔTm at 11 µM (ER-β) read?
A: 1.1 °C

Q: Which “Ligand function for ER-α (agonist or antagonist)” value (ER-α [1]) does the source give for 4-hydroxytamoxifen [4-OH-tamoxifen] here?
A: antagonist

Q: And the ΔTm (ER-α [1]; in °C (unit assumed))?
A: 19.99

Q: How did the ΔTm (ER-α [1]; [3]) turn out when `C[C@@]12CCC[C@H]1[C@@H]1CCC3=CCCC[C@]3(C)[C@H]1CC2` [4-androstene] was run?
A: −0.23

Q: With SRC-3: co-activator protein SRC-3 as the compound, how does the Observed ΔTm stabilization by co-regulator alone (no ligand) (ER-α [2]; ER-α 8 μM, no ligand, SRC-3 11 μM, peptides 100 XM) read?
A: 0.5 °C

Q: And the “Preferential recruitment of co-activator, ER-α vs. ER-β” value (ER-α [2]; in the presence of estrogen-like ligands, result in words)?
A: preferentially recruited

Q: `C[C@]12C[C@H](O)[C@H]3[C@@H](CCC4=CC(=O)CC[C@@]43C)[C@@H]1CC[C@@H]2C(=O)CO` [corticosterone] was tested. Which ΔTm (ER-α [1]; [3]) did it give?
A: −0.27

Q: `C[C@]12CC[C@@H]3c4ccc(O)cc4C[C@@H](CCCCCCCCC[S+]([O-])CCCC(F)(F)C(F)(F)F)[C@H]3[C@@H]1CC[C@@H]2O` (stereo partly shown) [ICI-182780] was tested. Which ΔTm at 11 µM (ER-β) did it give?
A: 0.6 °C

Q: And the “Observed ΔTm stabilization, ligand alone” value (ER-β)?
A: 13.6

Q: What about the “Additional stabilization / ability to recruit co-activators in the presence of co-activator protein/peptide” value (ER-β; ER-β, result in words) of the same compound?
A: no ability to recruit co-activators

Q: And the ΔTm at 11 µM (ER-α [2]; ER-α 8 μM, ligand 20 μM, co-activator protein SRC-3 11 μM, read-out: Change in Tm stabilization from the receptor-ligand ΔTm in the presence of SRC-3)?
A: 0 °C

Q: And the “Additional stabilization / ability to recruit co-activators in the presence of co-activator protein/peptide” value (ER-α [2]; ER-α, result in words)?
A: no ability to recruit co-activators

Q: Which results are given for `COc1cc2c(cc1O)CC[C@@H]1[C@@H]2CC[C@]2(C)[C@@H](O)CC[C@@H]12` [2-methoxy-E2, 2-methoxyestradiol]?
A: Change in Tm stabilization from the receptor-ligand ΔTm in the presence of SRC-1 NR2 (ER-β): 4.4; Change in Tm stabilization from the receptor-ligand ΔTm in the presence of SRC-3 NR2 (ER-β): 4.4; Change in Tm stabilization from the receptor-ligand ΔTm in the presence of SRC-3 (ER-β): 2.2; Change in Tm stabilization from the receptor-ligand ΔTm in the presence of NCoR1 (ER-β): −0.7; Observed ΔTm stabilization, ligand alone (ER-β): 1.5; Change in Tm stabilization from the receptor-ligand ΔTm in the presence of NCoR1 (ER-α [2]; ER-α 8 μM, ligand 20 μM, co-repressor peptide NCoR-1): −0.3; Observed ΔTm stabilization, ligand alone (ER-α [2]; ER-α 8 μM, ligand 20 μM, no co-regulator, average of four experiments): 1.8; ΔTm (ER-α [1]; [4]): 5.98; Ligand function for ER-α (agonist or antagonist) (ER-α [1]; interpretation if ligands had been screened against co-regulators as in Example 1): agonists

Q: Which “Change in Tm stabilization from the receptor-ligand ΔTm in the presence of SRC-1 NR2” value (ER-β) does the source give for “17-α-ethyleneestradiol [17-α-ethylen-E2]” here?
A: 2.6

Q: What about the “Change in Tm stabilization from the receptor-ligand ΔTm in the presence of SRC-3 NR2” value (ER-β) of the same compound?
A: 2.6

Q: And the “Change in Tm stabilization from the receptor-ligand ΔTm in the presence of SRC-3” value (ER-β)?
A: 1.6

Q: And the “Change in Tm stabilization from the receptor-ligand ΔTm in the presence of NCoR1” value (ER-β)?
A: −0.1

Q: And the “Observed ΔTm stabilization, ligand alone” value (ER-β)?
A: 15.0

Q: Which ΔTm (ER-α [1]; [4]) does the source give for `C[C@]12CCC(=O)C=C1CC[C@@H]1[C@@H]2C(=O)C[C@@]2(C)[C@H]1CC[C@]2(O)C(=O)CO` [cortisone] here?
A: 0.01

Q: Which ΔTm (ER-α [1]; [3]) does the source give for `CC(=O)[C@H]1CC[C@H]2[C@@H]3CCC4=CC(=O)CC[C@]4(C)[C@H]3CC[C@]12C` [progesterone] here?
A: −0.19
